Experimental data: the NIST ThermoML archive (doi:10.1016/j.jct.2015.10.006)
± gives the expanded uncertainty stated by the source.

Details: Liquid, Frequency=8 MHz, Pulse-echo method

CCO [ethanol]
Details | speed of sound [m/s]
253.15 K, 101 kPa | 1304.8 ± 0.73
253.15 K, 4988 kPa | 1329.9 ± 0.74
253.15 K, 10126 kPa | 1355.1 ± 0.75
253.15 K, 15056 kPa | 1378.4 ± 0.76
253.15 K, 19988 kPa | 1400.8 ± 0.77
253.15 K, 25051 kPa | 1423 ± 0.78
253.15 K, 30366 kPa | 1445.5 ± 0.79
273.15 K, 101 kPa | 1230.4 ± 0.69
273.15 K, 5095 kPa | 1258.5 ± 0.71
273.15 K, 10288 kPa | 1286.1 ± 0.72
273.15 K, 15102 kPa | 1310.6 ± 0.73
273.15 K, 19986 kPa | 1334.4 ± 0.74
273.15 K, 25007 kPa | 1357.9 ± 0.75
273.15 K, 30061 kPa | 1380.6 ± 0.76
293.15 K, 101 kPa | 1159.8 ± 0.66
293.15 K, 5052 kPa | 1190 ± 0.68
293.15 K, 9984 kPa | 1218.5 ± 0.69
293.15 K, 15097 kPa | 1246.4 ± 0.7
293.15 K, 20038 kPa | 1272.2 ± 0.71
293.15 K, 25073 kPa | 1297.3 ± 0.72
293.15 K, 30034 kPa | 1321 ± 0.73
313.15 K, 101 kPa | 1091.6 ± 0.63
313.15 K, 5015 kPa | 1124.4 ± 0.65
313.15 K, 10081 kPa | 1156 ± 0.66
313.15 K, 15057 kPa | 1185.3 ± 0.67
313.15 K, 20137 kPa | 1213.6 ± 0.69
313.15 K, 25255 kPa | 1240.7 ± 0.7
313.15 K, 30161 kPa | 1265.5 ± 0.71
333.15 K, 101 kPa | 1024.9 ± 0.6
333.15 K, 5287 kPa | 1062.5 ± 0.62
333.15 K, 10309 kPa | 1096.4 ± 0.63
333.15 K, 15132 kPa | 1126.9 ± 0.65
333.15 K, 20140 kPa | 1156.7 ± 0.66
333.15 K, 25071 kPa | 1184.6 ± 0.67
333.15 K, 30117 kPa | 1211.7 ± 0.69
353.15 K, 110 kPa | 957.67 ± 0.57
353.15 K, 5428 kPa | 1000.1 ± 0.59
353.15 K, 10327 kPa | 1036.1 ± 0.61
353.15 K, 15492 kPa | 1071.3 ± 0.62
353.15 K, 20337 kPa | 1102.3 ± 0.64
353.15 K, 25296 kPa | 1132.1 ± 0.65
353.15 K, 29944 kPa | 1158.6 ± 0.66

CCCO [propan-1-ol]
Details | speed of sound [m/s]
253.15 K, 102 kPa | 1368 ± 0.69
253.15 K, 5133 kPa | 1393 ± 0.7
253.15 K, 10109 kPa | 1416.6 ± 0.71
253.15 K, 15198 kPa | 1439.9 ± 0.72
253.15 K, 20092 kPa | 1461.4 ± 0.73
253.15 K, 25341 kPa | 1483.7 ± 0.74
253.15 K, 30423 kPa | 1504.6 ± 0.75
273.15 K, 101 kPa | 1293.5 ± 0.67
273.15 K, 5181 kPa | 1320.8 ± 0.68
273.15 K, 10163 kPa | 1346.3 ± 0.69
273.15 K, 15287 kPa | 1371.4 ± 0.7
273.15 K, 20261 kPa | 1394.8 ± 0.7
273.15 K, 25076 kPa | 1416.6 ± 0.71
273.15 K, 30164 kPa | 1438.9 ± 0.72
293.15 K, 105 kPa | 1222.5 ± 0.64
293.15 K, 5042 kPa | 1251.2 ± 0.65
293.15 K, 10141 kPa | 1279.3 ± 0.66
293.15 K, 15272 kPa | 1306.3 ± 0.67
293.15 K, 20136 kPa | 1330.7 ± 0.68
293.15 K, 25068 kPa | 1354.6 ± 0.69
293.15 K, 30231 kPa | 1378.5 ± 0.7
313.01 K, 30237 kPa | 1321.2 ± 0.68
313.15 K, 108 kPa | 1154.1 ± 0.61
313.15 K, 5139 kPa | 1185.8 ± 0.62
313.15 K, 10136 kPa | 1215.4 ± 0.64
313.15 K, 15128 kPa | 1243.6 ± 0.65
313.15 K, 20151 kPa | 1270.6 ± 0.66
313.15 K, 25136 kPa | 1296.1 ± 0.67
333.15 K, 101 kPa | 1086.8 ± 0.59
333.15 K, 5018 kPa | 1120.5 ± 0.6
333.15 K, 10050 kPa | 1152.8 ± 0.61
333.15 K, 15186 kPa | 1183.9 ± 0.62
333.15 K, 20183 kPa | 1212.5 ± 0.64
333.15 K, 25121 kPa | 1239.5 ± 0.65
333.15 K, 30028 kPa | 1265 ± 0.66
353.15 K, 104 kPa | 1018.9 ± 0.56
353.15 K, 5034 kPa | 1056 ± 0.58
353.15 K, 10009 kPa | 1090.8 ± 0.59
353.15 K, 15132 kPa | 1124.2 ± 0.6
353.15 K, 20099 kPa | 1154.8 ± 0.61
353.15 K, 25054 kPa | 1183.6 ± 0.62
353.15 K, 30493 kPa | 1213.6 ± 0.64

CO [methanol]
Details | speed of sound [m/s]
253.15 K, 101 kPa | 1259.4 ± 0.68
253.15 K, 5031 kPa | 1283.6 ± 0.69
253.15 K, 10064 kPa | 1307.3 ± 0.7
253.15 K, 15070 kPa | 1329.9 ± 0.71
253.15 K, 20048 kPa | 1351.5 ± 0.72
253.15 K, 25130 kPa | 1372.8 ± 0.73
253.15 K, 30260 kPa | 1393.5 ± 0.74
273.15 K, 101 kPa | 1187.3 ± 0.65
273.15 K, 5017 kPa | 1213.8 ± 0.66
273.15 K, 10158 kPa | 1240 ± 0.67
273.15 K, 15070 kPa | 1264 ± 0.68
273.15 K, 20132 kPa | 1287.6 ± 0.69
273.15 K, 25155 kPa | 1310.1 ± 0.7
273.15 K, 30074 kPa | 1331.4 ± 0.71
293.15 K, 101 kPa | 1119.1 ± 0.62
293.15 K, 5028 kPa | 1147.8 ± 0.63
293.15 K, 10032 kPa | 1175.5 ± 0.65
293.15 K, 15145 kPa | 1202.4 ± 0.66
293.15 K, 20159 kPa | 1227.6 ± 0.67
293.15 K, 25062 kPa | 1251.1 ± 0.68
293.15 K, 30276 kPa | 1275.1 ± 0.69
313.15 K, 101 kPa | 1053.2 ± 0.59
313.15 K, 5046 kPa | 1084.8 ± 0.61
313.15 K, 10127 kPa | 1115.4 ± 0.62
313.15 K, 15085 kPa | 1143.5 ± 0.63
313.15 K, 19989 kPa | 1170 ± 0.64
313.15 K, 25090 kPa | 1196.1 ± 0.65
313.15 K, 30009 kPa | 1220.1 ± 0.66
333.15 K, 101 kPa | 988.92 ± 0.57
333.15 K, 5029 kPa | 1023.7 ± 0.58
333.15 K, 10110 kPa | 1056.9 ± 0.59
333.15 K, 15215 kPa | 1088.2 ± 0.61
333.15 K, 20093 kPa | 1116.3 ± 0.62
333.15 K, 25061 kPa | 1143.5 ± 0.63
333.15 K, 30122 kPa | 1169.9 ± 0.64
353.15 K, 197 kPa | 925.58 ± 0.54
353.15 K, 5097 kPa | 963.76 ± 0.56
353.15 K, 10106 kPa | 999.62 ± 0.57
353.15 K, 15143 kPa | 1033 ± 0.58
353.15 K, 20216 kPa | 1064.5 ± 0.6
353.15 K, 25221 kPa | 1093.7 ± 0.61
353.15 K, 30092 kPa | 1120.6 ± 0.62

CCCCO [butan-1-ol]
Details | speed of sound [m/s]
253.15 K, 108 kPa | 1399.2 ± 0.73
253.15 K, 5065 kPa | 1423.1 ± 0.74
253.15 K, 10086 kPa | 1446.2 ± 0.74
253.15 K, 15035 kPa | 1468.3 ± 0.75
253.15 K, 20115 kPa | 1490.2 ± 0.76
253.15 K, 25062 kPa | 1510.8 ± 0.77
253.15 K, 30526 kPa | 1532.7 ± 0.78
273.15 K, 103 kPa | 1326.1 ± 0.7
273.15 K, 5008 kPa | 1351.9 ± 0.71
273.15 K, 10094 kPa | 1377.2 ± 0.72
273.15 K, 15185 kPa | 1401.4 ± 0.73
273.15 K, 20115 kPa | 1424.1 ± 0.74
273.15 K, 25088 kPa | 1446.1 ± 0.74
273.15 K, 30170 kPa | 1467.9 ± 0.75
293.15 K, 104 kPa | 1256.4 ± 0.67
293.15 K, 5067 kPa | 1284.6 ± 0.69
293.15 K, 10144 kPa | 1311.7 ± 0.69
293.15 K, 15081 kPa | 1336.9 ± 0.7
293.15 K, 20094 kPa | 1361.5 ± 0.71
293.15 K, 25087 kPa | 1385 ± 0.72
293.15 K, 30176 kPa | 1408.1 ± 0.73
313.15 K, 100 kPa | 1189.2 ± 0.65
313.15 K, 5050 kPa | 1219.2 ± 0.66
313.15 K, 10082 kPa | 1248.2 ± 0.67
313.15 K, 15167 kPa | 1276 ± 0.68
313.15 K, 20187 kPa | 1302.2 ± 0.69
313.15 K, 25473 kPa | 1328.5 ± 0.7
313.15 K, 30162 kPa | 1351 ± 0.71
333.15 K, 99 kPa | 1122.9 ± 0.62
333.15 K, 5055 kPa | 1155.5 ± 0.64
333.15 K, 10099 kPa | 1186.8 ± 0.65
333.15 K, 15058 kPa | 1215.8 ± 0.66
333.15 K, 20149 kPa | 1244.2 ± 0.67
333.15 K, 25167 kPa | 1270.8 ± 0.68
333.15 K, 30276 kPa | 1296.8 ± 0.69
353.15 K, 100 kPa | 1056.4 ± 0.6
353.15 K, 5013 kPa | 1091.6 ± 0.61
353.15 K, 10032 kPa | 1125.3 ± 0.63
353.15 K, 15066 kPa | 1157.1 ± 0.64
353.15 K, 20085 kPa | 1187 ± 0.65
353.15 K, 25075 kPa | 1215.1 ± 0.66
353.15 K, 30204 kPa | 1242.7 ± 0.67
